# In US8691186B2, “Imaging infection with compounds that bind to thymidine kinase” (priority 2004, dated 2014):
# Key:
# Escherichia coli = test: In vitro bacterial susceptibility assay, wild type E. coli; format: cell-based; settings: for Susceptibility of E. coli to nucleoside analog (growth inhibition): in vitro, Luria broth, 37° C.
# Description: (§1) 1-(2′-deoxy-2′-fluoro-β-D-arabinofuranosyl)-5-iodouracil (FIAU) (Moravek catalog no. M251) and penciclovir (Moravek catalog no. M972) were purchased from Moravek Biochemicals (Brea, Calif.). Zidovudine was purchased from Glaxo Wellcome. Bacterial susceptibility tests were performed in 96-well microtiter plates (VWR Scientific), with serial dilutions of drug placed in each well. Each well was inoculated with Escherichia coli (Yale University E. coli Genetic Stock Center, New Haven, Conn.) and grown in Luria broth (Invitrogen) at 37° C. E. coli TK mutants were generated by selecting for spontaneously resistant colonies on plates containing 1 mg/ml Zidovudine. Ten resistant clones were selected and screened for deletions in the TK gene by using the PCR primers SZ46-eTKKO20F and (5′-[…]-3′ (SEQ ID NO: 1)) SZ49-eTK-K0789R (5′-ATCAAGACGCAGCACCATG-3′ (SEQ ID NO: 2)). […] As a control for integrity of the DNA of this clone, its 16S rRNA gene was amplified by using the primers SZ-16S-Ecoli993F (5′-ACATCCACGGAAGTTT-TCAG-3′ (SEQ ID NO: 3)) SZ 16S-Ecoli454R (5′-CCGAAGGTTAAGC-TACCTAC-3′ (SEQ ID NO: 4)).
# To determine whether endogenous bacterial TK could provide a reporter enzyme suitable for imaging, the susceptibility of E. coli to a variety of common nucleoside analogs was examined in vitro.
# (§2) In vitro susceptibility tests were performed on C. novyi-NT using 96 well plates containing two-fold serial dilutions of FIAU (Moravek Biochemicals) in reinforced clostridial media (Difco). Approximately, 10^5-10^6 bacteria were inoculated into each well and incubated at 37 C. overnight in an anaerobic chamber. C. novyi-NT growth was measured using an OD600. In order to test the mechanism of action of FIAU on bacteria, the thymidine kinase (TK) gene in E. coli was knocked out. An in vitro FIAU susceptibility test comparing wild type E. coli with the mutant TK deficient E. coli was preformed. 96 well plates were used containing two-fold serial dilutions of FIAU in Lauria Broth. Approximately, 10^5-10^6 bacteria were inoculated into each well and incubated at 37 C. overnight. Growth was measured using OD600.
# C. novyi-NT [1] = test: In vitro susceptibility test on C. novyi-NT; format: cell-based, Clostridium novyi-NT; settings: reinforced clostridial media, overnight, anaerobic, OD600
# Description: as §2
# TK deficient E. coli = test: In vitro bacterial susceptibility assay, TK-deleted E. coli; format: cell-based, Escherichia coli; settings: for Susceptibility of TK gene-deleted E. coli derivative: in vitro
# Description: as §1
# To determine whether the TK gene was responsible for this sensitivity, a derivative of E. coli in which the TK gene was deleted was created. […] Because FIAU can be radiolabeled by using commercially available reagents and has been successfully used to image tumor cells transfected with HSV1-TK, it was elected to test its potential for imaging bacterial infections.
# as §2, with “96 well plates were used containing two-fold serial dilutions of FIAU in Lauria Broth. Approximately, 10^5-10^6 bacteria were inoculated into each well and incubated at 37 C. overnight.” left out
# [2] = tested on: Enterococcus faecalis 49532; test: In vivo imaging of E. faecalis thigh infection in mice; settings: mouse thigh infection
# Description: (§3) E. coli strains or clinical isolates from the Johns Hopkins Hospital Microbiology Laboratory, including Staphylococcus aureus 29213 and 25923, Streptococcus pneumoniae 49619, Enterococcus faecalis 49532, and Staphylococcus epidermidis F362, were used to create experimental infections. Bacteria were grown to log phase in Mueller Hinton Broth with Cations (Remel, Lenexa, Kans.) or BBL Todd Hewitt Broth (Becton Dickinson). Localized infections were generated by injecting 1×10^9 E. coli and ≈1×10^8 of the other bacterial strains into mouse thighs. […] To quantify the minimal number of bacteria required to generate signals upon imaging, mice were injected in the thigh with various amounts of S. aureus 25923. One hour later, the mice were killed, the muscles were harvested and homogenized, and the extracts spread on blood agar plates (Becton Dickinson) for colony counting.
# (§4) Mice were injected with 225 μCi of [^125I]FIAU via the tail vein and imaged at various time points thereafter. Before imaging, mice were anesthetized via s.c. administration of acepromazine and ketamine. Each scan took min with a dedicated small-animal single-photon emission computed tomography (SPECT)/computed tomography (CT) camera (Gamma Medica X-SPECT, Northridge, Calif.) in planar acquisition mode using a low-energy high-resolution (LEHR) parallel-hole collimator. […]
# [3] = tested on: Streptococcus pneumoniae 49619; test: In vivo imaging of S. pneumoniae thigh infection in mice; settings: mouse thigh infection
# Description: as §3, §4
# [4] = tested on: Staphylococcus epidermidis F362; test: In vivo imaging of S. epidermidis thigh infection in mice; settings: mouse thigh infection
# Description: as §3, §4
# [5] = tested on: Staphylococcus aureus 29213 and 25923; test: In vivo imaging of S. aureus thigh infection in mice; settings: mouse thigh infection
# Description: as §3, §4
# [6] = tested on: E. faecalis, S. aureus, S. epidermidis, and S. pneumoniae; test: Time course of imaging of infections caused by pathogenic bacteria in mice; format: in vivo
# Description: as §3
# (§5) Mice were injected with 225 μCi of [^125I]FIAU via the tail vein and imaged at various time points thereafter. Before imaging, mice were anesthetized via s.c. administration of acepromazine and ketamine. Each scan took min with a dedicated small-animal single-photon emission computed tomography (SPECT)/computed tomography (CT) camera (Gamma Medica X-SPECT, Northridge, Calif.) in planar acquisition mode using a low-energy high-resolution (LEHR) parallel-hole collimator. For each bacterial strain used, at least two mice were injected and imaged. To obtain SPECT/CT images, animals were first scanned for ≈40 min by using a small-animal SPECT camera in tomographic acquisition mode, using two LEHR parallel-hole collimators. The animals then underwent CT by using appropriate fiducial markers that allowed coregistration.
# Accordingly, this time point was chosen for detailed analyses. Biodistribution studies were performed in mice injected with 1×10^8 S. aureus 25923 into one thigh. Six hours later, the mice were injected with 2 μCi of [^125I]FIAU, and, after another 24 h, the mice were killed, their organs were harvested, and radioactivity was determined. […]
# WT E. coli = test: In vivo imaging of WT E. coli thigh infection in mice; set-up: species or system Escherichia coli
# Description: as §3, §5
# [^125I]FIAU was synthesized by standard methods and injected i.v. into animals 6 h after intramuscular inoculations of bacteria into the thighs of mice. […] Signals from the infectious lesions could be seen as early as 2 h after injection of [^125I]FIAU and were optimal 16 h after injection.
# S. aureus 25923 = test: Minimal number of bacteria that could be imaged in mouse thigh; format: in vivo, Staphylococcus aureus; settings: 1 h after bacterial injection
# Description: as §3
# To determine the minimal number of bacteria that could be imaged with this approach, various numbers of S. aureus 25923 were injected into mouse thighs. One hour later, the thigh tissue was excised, homogenized, and spread on blood agar plates. The 1-h time point was chosen because this was the earliest time point at which injections of [^125I]FIAU consistently produced discernable scintigraphic images of infectious foci. As few as 2×10^6 colony-forming units per gram of muscle tissue produced discernable signals.
# C. novyi-NT [7] = test: Imaging of intratumoral C. novyi-NT infection in tumor-bearing mice; format: in vivo, Clostridium novyi-NT
# Description: All animal experiments were overseen and approved by the Animal Welfare Committee of The John Hopkins University and were in compliance with university standards. Six- to 8-wk-old athymic nu/nu or BALB/c mice, purchased from Harlan Bioproducts for Science (Indianapolis), were used for tumor implantation studies. Five million cells were injected s.c. into the right flank of each mouse. Tumor volume was calculated as length×width^2×0.5, and mice were treated with Clostridium novyi-NT spores when tumors occupied ˜250 mm^3. C. novyi-NT spores were prepared as described (15), and mice were i.v. injected with 300 million spores suspended in 250 μl of PBS.
# as §5
# BALB/c mice bearing CT-26 mouse colon tumors were treated with a single i.v. injection of C. novyi-NT and [^125I]FIAU was administered 24 h later.
# For in vivo studies, FIAU was labeled with 1-125. The optimal time course for imaging mice harboring HCTZ 16 colon cancer xenografts was determined empirically by varying the time of injection of FIAU in relation to C. novyi-NT. Biodistribution studies were performed in 12 athymic nu/nu mice harboring HCTZ 16 xenografts ˜350-400 mm^3, six of which were injected with 300 million C. novyi-NT spores 24 hrs prior to 2 uCi of 1-125 FIAU. Eight hours after I-125 FIAU injection, all twelve mice were euthanized by cervical dislocation and the brain, lungs, heart, blood, small and large intestine, liver, kidneys, muscle and tumor were harvested and weighed. The activity in each tissue was measured using an automated gamma counter (LKB Wallace 1282 Compugamma CS Universal Gamma Counter). The percent-injected dose per gram of tissue (% ID/g) was calculated by comparison with samples of a standard dilution of the initial dose. […]
# [8] = tested on: TK-deficient (TK−) strain of E. coli; test: In vivo imaging of TK- E. coli thigh infection in mice; set-up: species or system Escherichia coli; settings: same mice, opposite thighs
# Description: as §3, §4
# [9] = BALB/c mice, CT-26 tumors, tracer 24 h after C. novyi-NT i.v.
smiles,measurement,setting,value
"O=c1[nH]c(=O)n([C@@H]2O[C@H](CO)[C@@H](O)[C@@H]2F)cc1I [FIAU, 1-(2′-deoxy-2′-fluoro-β-D-arabinofuranosyl)-5-iodouracil]",Susceptibility of E. coli to nucleoside analog (growth inhibition),Escherichia coli,quite sensitive
same,log10 IC50 (M),"Escherichia coli; wild type E. coli, Lauria Broth, overnight, OD600",-10
same,minimum inhibitory concentration 50 (MIC50),C. novyi-NT [1],~20 µg/mL
same,Susceptibility of TK gene-deleted E. coli derivative,TK deficient E. coli,highly resistant
same,Growth inhibition of TK deficient E. coli,"TK deficient E. coli; two-fold serial dilutions, overnight, OD600",not inhibited at any concentration
Nc1nc2c(ncn2COC(CO)CO)c(=O)[nH]1 [genciclovir],Susceptibility of E. coli to nucleoside analog (growth inhibition),Escherichia coli,resistant
"O=c1[nH]c(=O)n([C@@H]2O[C@H](CO)[C@@H](O)[C@@H]2F)cc1[125I] [[^125I]FIAU, 2′-fluoro-2′deoxy-1-beta-D-arabinofuranosyl-5-iodo-uracil]",Imaging of infectious foci due to E. faecalis,[2],readily imaged
same,Imaging of infectious foci due to S. pneumoniae,[3],readily imaged
same,Imaging of infectious foci due to S. epidermidis,[4],readily imaged
same,Imaging of infectious foci due to S. aureus,[5],readily imaged
same,Signal-to-noise ratio in infectious foci 24 h after administration,[6]; 24 h after administration,high signal-to-noise ratios
same,Signal-to-noise ratio by 48 h after administration,[6]; 48 h after administration of the tracer,very high signal-to-noise ratios
same,Earliest time at which robust signals could be observed after administration,"[6]; mouse thigh infections, patient-derived strains",4 h
same,Earliest time at which signals from infectious lesions could be seen after injection,WT E. coli; WT E. coli thigh infection,2 h
same,Time after injection at which signals were optimal,WT E. coli; WT E. coli thigh infection,16 h
same,Uptake within infected thighs (whole-body planar scintigram),WT E. coli; tracer i.v. 6 h after i.m. inoculation,demonstrated the uptake
same,Minimal number of bacteria producing discernable signals,S. aureus 25923,2×10^6 colony-forming units per gram of muscle tissue
same,Earliest time at which tumors could be visualized after injection of tracer,C. novyi-NT [7]; [9],16 h
same,Time of maximum uptake after injection,C. novyi-NT [7]; [9],24 to 48 h
same,Uptake in tumors not treated with C. novyi-NT,"C. novyi-NT [7]; CT-26 tumors, no C. novyi-NT",No uptake
same,Imaging of tumor types responsive to bacteriolytic therapy,"C. novyi-NT [7]; HCT116, HuCCTI or CT26 tumors, after C. novyi-NT spores",able to be imaged
same,Uptake in thighs inoculated with TK- E. coli,[8],no discernable uptake
Nc1nc2c(ncn2CCC(CO)CO)c(=O)[nH]1 [penciclovir],Susceptibility of E. coli to nucleoside analog (growth inhibition),Escherichia coli,resistant
Cc1cn([C@H]2C[C@H](N=[N+]=[N-])[C@@H](CO)O2)c(=O)[nH]c1=O [Zidovudine],Susceptibility of E. coli to nucleoside analog (growth inhibition),Escherichia coli,quite sensitive
same,Susceptibility of TK gene-deleted E. coli derivative,TK deficient E. coli,moderately resistant
